# From patent US11618743B2, “Herbicidal compounds” (SYNGENTA PARTICIPATIONS AG, priority 2017, dated 2023)
# Legend:
# Test in all cases: Post-emergence efficacy, Method A
# Type in all cases: in vivo
# [1] = tested on: Amaranthus palmeri (AMAPA); conditions: Application rate 500 g/Ha, evaluated after 13 days; for Control of weed species AMAPA after post-emergence application (100=total damage to plant; 0=no damage to plant): Method A
# How it was run: (§1)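 Potted plants in standard soil grown 14 d at 24/16 °C, 65% RH, then sprayed; twice-daily watering afterwards. Rated day 13, 0–100 damage.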
# [2] = tested on: Chenopodium album (CHEAL); conditions: Application rate 500 g/Ha, evaluated after 13 days; for Control of weed species CHEAL after post-emergence application (100=total damage to plant; 0=no damage to plant): Method A
# How it was run: as §1
# [3] = tested on: Digitaria sanguinalis (DIGSA); conditions: Application rate 500 g/Ha, evaluated after 13 days; for Control of weed species DIGSA after post-emergence application (100=total damage to plant; 0=no damage to plant): Method A
# How it was run: as §1
# [4] = tested on: Echinochloa crus-galli (ECHCG); conditions: Application rate 500 g/Ha, evaluated after 13 days; for Control of weed species ECHCG after post-emergence application (100=total damage to plant; 0=no damage to plant): Method A
# How it was run: as §1
# Eleusine indica (ELEIN) = conditions: Application rate 500 g/Ha, evaluated after 13 days; for Control of weed species ELEIN after post-emergence application (100=total damage to plant; 0=no damage to plant): Method A
# How it was run: as §1
# [5] = tested on: Euphorbia heterophylla (EPHHL); conditions: Application rate 500 g/Ha, evaluated after 13 days; for Control of weed species EPHHL after post-emergence application (100=total damage to plant; 0=no damage to plant): Method A
# How it was run: as §1
# [6] = tested on: Ipomoea hederacea (IPOHE); conditions: Application rate 500 g/Ha, evaluated after 13 days; for Control of weed species IPOHE after post-emergence application (100=total damage to plant; 0=no damage to plant): Method A
# How it was run: as §1
# Lolium perenne (LOLPE) = conditions: Application rate 500 g/Ha, evaluated after 13 days; for Control of weed species LOLPE after post-emergence application (100=total damage to plant; 0=no damage to plant): Method A
# How it was run: as §1
# Setaria faberi (SETFA) = conditions: Application rate 500 g/Ha, evaluated after 13 days; for Control of weed species SETFA after post-emergence application (100=total damage to plant; 0=no damage to plant): Method A
# How it was run: as §1
# [7] = 100=total damage to plant, 0=no damage
Compound,"Control of weed species after post-emergence application, AMAPA [1, 7]","Control of weed species after post-emergence application, CHEAL [2, 7]","Control of weed species after post-emergence application, DIGSA [3, 7]","Control of weed species after post-emergence application, ECHCG [4, 7]","Control of weed species after post-emergence application, ELEIN (Eleusine indica (ELEIN); [7])","Control of weed species after post-emergence application, EPHHL [5, 7]","Control of weed species after post-emergence application, IPOHE [6, 7]","Control of weed species after post-emergence application, LOLPE (Lolium perenne (LOLPE); [7])","Control of weed species after post-emergence application, SETFA (Setaria faberi (SETFA); [7])",other results
O=S(=O)([O-])CC[n+]1ccc(-c2cccnc2)cn1 [Compound A179],30,30,50,40,50,60,20,10,60,
"COP(=O)(C[n+]1ccc(-c2ncccn2)cn1)OC.O=S(=O)([O-])C(F)(F)F [Compound A238, 1-(dimethoxyphosphorylmethyl)-4-pyrimidin-2-yl-pyridazin-1-ium trifluoromethanesulfonate]",50,20,50,40,30,50,40,10,50,
O=P([O-])(O)C[n+]1ccc(-c2ccncn2)cn1 [Compound A236],90,20,80,50,10,30,40,0,30,
O=C(O)c1ccnc(-c2cc[n+](CCCS(=O)(=O)[O-])nc2)n1 [Compound A146],,,,,,,,,,Control of weed species AMAPA after post-emergence application (100=total damage to plant; 0=no damage to plant) [1]: 90; Control of weed species CHEAL after post-emergence application (100=total damage to plant; 0=no damage to plant) [2]: 40; Control of weed species DIGSA after post-emergence application (100=total damage to plant; 0=no damage to plant) [3]: 80; Control of weed species ECHCG after post-emergence application (100=total damage to plant; 0=no damage to plant) [4]: 90; Control of weed species ELEIN after post-emergence application (100=total damage to plant; 0=no damage to plant) (Eleusine indica (ELEIN)): 80; Control of weed species EPHHL after post-emergence application (100=total damage to plant; 0=no damage to plant) [5]: 50; Control of weed species IPOHE after post-emergence application (100=total damage to plant; 0=no damage to plant) [6]: 30; Control of weed species LOLPE after post-emergence application (100=total damage to plant; 0=no damage to plant) (Lolium perenne (LOLPE)): 50; Control of weed species SETFA after post-emergence application (100=total damage to plant; 0=no damage to plant) (Setaria faberi (SETFA)): 100
COc1cc(C)nc(-c2cc[n+](CCS(=O)(=O)[O-])nc2)n1 [Compound A94],,,,,,,,,,Control of weed species AMAPA after post-emergence application (100=total damage to plant; 0=no damage to plant) [1]: 70; Control of weed species CHEAL after post-emergence application (100=total damage to plant; 0=no damage to plant) [2]: 90; Control of weed species DIGSA after post-emergence application (100=total damage to plant; 0=no damage to plant) [3]: 30; Control of weed species ECHCG after post-emergence application (100=total damage to plant; 0=no damage to plant) [4]: 30; Control of weed species ELEIN after post-emergence application (100=total damage to plant; 0=no damage to plant) (Eleusine indica (ELEIN)): 20; Control of weed species EPHHL after post-emergence application (100=total damage to plant; 0=no damage to plant) [5]: 40; Control of weed species IPOHE after post-emergence application (100=total damage to plant; 0=no damage to plant) [6]: 30; Control of weed species LOLPE after post-emergence application (100=total damage to plant; 0=no damage to plant) (Lolium perenne (LOLPE)): 20; Control of weed species SETFA after post-emergence application (100=total damage to plant; 0=no damage to plant) (Setaria faberi (SETFA)): 40
"O=C(O)CC[n+]1ccc(-c2ncc(Cl)c(=O)[nH]2)cn1 [Compound A161, 3-[4-(5-chloro-6-oxo-1H-pyrimidin-2-yl)pyridazin-1-ium-1-yl]propanoic acid 2,2,2-trifluoroacetate]",30,70,20,20,20,50,20,10,10,
"N[C@@H](C[n+]1ccc(-c2ncccn2)cn1)C(=O)O [Compound A208, [(1S)-1-carboxy-2-(4-pyrimidin-2-ylpyridazin-1-ium-1-yl)ethyl]ammonium 2,2,2-trifluoroacetate]",100,80,40,30,60,50,20,10,60,
N[C@H](CC[n+]1ccc(-c2ccncn2)cn1)C(=O)O [Compound A235],10,40,40,30,10,20,20,0,30,
Nc1cc(-c2cc[n+](CCS(=O)(=O)[O-])nc2)nc(N)n1 [Compound A187],,,,,,,,,,"pest or weed control at 500 g/ha ([1]; Amaranthus palmeri, post-emergence, 312 h, 100=total damage to plant, 0=no damage, read-out: Control of weed species after post-emergence application, AMAPA): 50%; pest or weed control at 500 g/ha ([2]; Chenopodium album, post-emergence, 312 h, 100=total damage to plant, 0=no damage, read-out: Control of weed species after post-emergence application, CHEAL): 40%; pest or weed control at 500 g/ha ([3]; Digitaria sanguinalis, post-emergence, 312 h, 100=total damage to plant, 0=no damage, read-out: Control of weed species after post-emergence application, DIGSA): 20%; pest or weed control at 500 g/ha ([4]; Echinochloa crus-galli, post-emergence, 312 h, 100=total damage to plant, 0=no damage, read-out: Control of weed species after post-emergence application, ECHCG): 20%; pest or weed control at 500 g/ha (Eleusine indica (ELEIN); Eleusine indica, post-emergence, 312 h, 100=total damage to plant, 0=no damage, read-out: Control of weed species after post-emergence application, ELEIN): 10%; pest or weed control at 500 g/ha ([5]; Euphorbia heterophylla, post-emergence, 312 h, 100=total damage to plant, 0=no damage, read-out: Control of weed species after post-emergence application, EPHHL): 50%; pest or weed control at 500 g/ha ([6]; Ipomoea hederacea, post-emergence, 312 h, 100=total damage to plant, 0=no damage, read-out: Control of weed species after post-emergence application, IPOHE): 20%; pest or weed control at 500 g/ha (Lolium perenne (LOLPE); Lolium perenne, post-emergence, 312 h, 100=total damage to plant, 0=no damage, read-out: Control of weed species after post-emergence application, LOLPE): 10%; pest or weed control at 500 g/ha (Setaria faberi (SETFA); Setaria faberi, post-emergence, 312 h, 100=total damage to plant, 0=no damage, read-out: Control of weed species after post-emergence application, SETFA): 10%"
COP(=O)(C[n+]1ccc(-c2ccncn2)cn1)OC.O=S(=O)([O-])C(F)(F)F [Compound A237],60,10,50,10,70,0,50,10,20,
